Data reported in US9593122B2, “Substituted pyrazolylpyrazole derivative and use of same as herbicide” (KYOYU AGRI CO., LTD., priority 2013, dated 2017).

How the values were obtained:
Assay in all cases: Paddy herbicidal activity test
Assay type in all cases: in vivo
[1] = test system: Echinochloa crus-galli; conditions: irrigated paddy pot, treated at 3.5 leaf stage of Echinochloa crus-galli, 30 days
Description: (§1) Rice paddy soil was filled into a 1/10000 are pot followed by the addition of suitable amounts of water and chemical fertilizer, kneading, seeding with Echinochloa crus-galli, Monochoria vaginalis and Scirpus juncoides and maintaining in an irrigated state at a water depth of 3 cm.
(§2) Wettable powder of Target Compound (I) shown in Table 1 prepared in compliance with the preparation examples were diluted with a suitable amount of water, rice plants in the 2.0 leaf stage were transplanted during 3.5 leaf stage of Echinochloa crus-galli, and treated by dropping in chemical in the prescribed amount per are using a pipette.
(§3) After treating for 30 days in a glass greenhouse at an average atmospheric temperature of 30° C., the herbicidal efficacy thereof was investigated.
(§4) Evaluation of herbicidal efficacy was carried out by comparing growth inhibition rate (%) with an untreated group, while evaluation of phytotoxicity was carried out by comparing growth inhibition rate (%) with the state of a complete eradication group, and were evaluated at 11 levels indicated below.

[2] = test system: Monochoria vaginalis; conditions: irrigated paddy pot, 30 days
Description: as §1, §2, §3, §4

[3] = test system: Scirpus juncoides; conditions: irrigated paddy pot, 30 days
Description: as §1, §2, §3, §4

| Structure (SMILES) | Echinochloa crus-galli herbicidal efficacy (growth inhibition level) ([1]; 1g a.i./10a) | Echinochloa crus-galli herbicidal efficacy (growth inhibition level) ([1]; 5g a.i./10a) | Monochoria vaginalis herbicidal efficacy (growth inhibition level) ([2]; 1g a.i./10a) | Monochoria vaginalis herbicidal efficacy (growth inhibition level) ([2]; 5g a.i./10a) | Scirpus juncoides herbicidal efficacy (growth inhibition level) ([3]; 1g a.i./10a) | Scirpus juncoides herbicidal efficacy (growth inhibition level) ([3]; 5g a.i./10a) |
| --- | --- | --- | --- | --- | --- | --- |
| N#Cc1cnn(-c2nn3c(c2Br)CCCC3)c1NC/C=C\Cl [Compound 45] | 9 (9: 90% to less than 100%) | 9 (9: 90% to less than 100%) | 9 (9: 90% to less than 100%) | 9 (9: 90% to less than 100%) | 9 (9: 90% to less than 100%) | 9 (9: 90% to less than 100%) |
| C=CCN(C(=O)C(F)(F)F)c1c(C#N)cnn1-c1nn2c(c1Br)CCCC2 [Compound 49] | 8 (8: 80% to less than 90%) | 9 (9: 90% to less than 100%) | 7 (7: 70% to less than 80%) | 9 (9: 90% to less than 100%) | 8 (8: 80% to less than 90%) | 9 (9: 90% to less than 100%) |
| CC(C)=CCN(C(=O)C(F)(F)F)c1c(C#N)cnn1-c1nn2c(c1Cl)CCCC2 [Compound 25] | 9 (9: 90% to less than 100%) | 10 (10: 100%) | 9 (9: 90% to less than 100%) | 9 (9: 90% to less than 100%) | 8 (8: 80% to less than 90%) | 8 (8: 80% to less than 90%) |
| CC=CCN(C(=O)C(F)(F)F)c1c([N+](=O)[O-])cnn1-c1nn2c(c1Cl)CCCC2 (mixture of isomers) [Compound 40] | 8 (8: 80% to less than 90%) | 9 (9: 90% to less than 100%) | 8 (8: 80% to less than 90%) | 8 (8: 80% to less than 90%) | 7 (7: 70% to less than 80%) | 8 (8: 80% to less than 90%) |
| C=CCN(C(=O)C(F)(F)F)c1c([N+](=O)[O-])cnn1-c1nn2c(c1Cl)CCCC2 [Compound 36] | 9 (9: 90% to less than 100%) | 10 (10: 100%) | 8 (8: 80% to less than 90%) | 9 (9: 90% to less than 100%) | 8 (8: 80% to less than 90%) | 9 (9: 90% to less than 100%) |
| N#Cc1cnn(-c2nn3c(c2Cl)CCCC3)c1N(CCC(F)=C(F)F)C(=O)C(F)(F)F [Compound 20] | 9 (9: 90% to less than 100%) | 9 (9: 90% to less than 100%) | 8 (8: 80% to less than 90%) | 9 (9: 90% to less than 100%) | 8 (8: 80% to less than 90%) | 8 (8: 80% to less than 90%) |
| CC=CCCN(C(=O)C(F)(F)F)c1c(C#N)cnn1-c1nn2c(c1Cl)CCCC2 (mixture of isomers) [Compound 26] | 9 (9: 90% to less than 100%) | 9 (9: 90% to less than 100%) | 8 (8: 80% to less than 90%) | 9 (9: 90% to less than 100%) | 7 (7: 70% to less than 80%) | 8 (8: 80% to less than 90%) |
| N#Cc1cnn(-c2nn3c(c2Cl)CCCC3)c1NC/C=C\Cl [Compound 7] | 9 (9: 90% to less than 100%) | 9 (9: 90% to less than 100%) | 9 (9: 90% to less than 100%) | 9 (9: 90% to less than 100%) | 7 (7: 70% to less than 80%) | 8 (8: 80% to less than 90%) |
| C=CCCN(C(=O)C(F)(F)F)c1c(C#N)cnn1-c1nn2c(c1Cl)CCCC2 [Compound 18] | 9 (9: 90% to less than 100%) | 9 (9: 90% to less than 100%) | 8 (8: 80% to less than 90%) | 9 (9: 90% to less than 100%) | 7 (7: 70% to less than 80%) | 8 (8: 80% to less than 90%) |
| N#Cc1cnn(-c2nn3c(c2Cl)CCCC3)c1N(CC(Cl)=CCl)C(=O)C(F)(F)F (mixture of isomers) [Compound 23] | 8 (8: 80% to less than 90%) | 9 (9: 90% to less than 100%) | 8 (8: 80% to less than 90%) | 9 (9: 90% to less than 100%) | 7 (7: 70% to less than 80%) | 8 (8: 80% to less than 90%) |
| C=CCN(C(=O)C(F)(F)C(F)(F)F)c1c(C#N)cnn1-c1nn2c(c1Cl)CCCC2 [Compound 28] | 9 (9: 90% to less than 100%) | 9 (9: 90% to less than 100%) | 8 (8: 80% to less than 90%) | 10 (10: 100%) | 8 (8: 80% to less than 90%) | 9 (9: 90% to less than 100%) |
| N#Cc1cnn(-c2nn3c(c2Br)CCCC3)c1N(C/C=C\Cl)C(=O)C(F)(F)F [Compound 53] | 9 (9: 90% to less than 100%) | 10 (10: 100%) | 7 (7: 70% to less than 80%) | 8 (8: 80% to less than 90%) | 7 (7: 70% to less than 80%) | 8 (8: 80% to less than 90%) |
| CC(C)=CCNc1c(C#N)cnn1-c1nn2c(c1Cl)CCCC2 [Compound 13] | 9 (9: 90% to less than 100%) | 10 (10: 100%) | 8 (8: 80% to less than 90%) | 9 (9: 90% to less than 100%) | 8 (8: 80% to less than 90%) | 8 (8: 80% to less than 90%) |
| C=C(C)CN(C(=O)C(F)(F)F)c1c(C#N)cnn1-c1nn2c(c1Cl)CCCC2 [Compound 19] | 9 (9: 90% to less than 100%) | 10 (10: 100%) | 9 (9: 90% to less than 100%) | 9 (9: 90% to less than 100%) | 7 (7: 70% to less than 80%) | 8 (8: 80% to less than 90%) |
| C=C(Cl)CN(C(=O)C(F)(F)F)c1c(C#N)cnn1-c1nn2c(c1Br)CCCC2 [Compound 51] | 9 (9: 90% to less than 100%) | 9 (9: 90% to less than 100%) | 8 (8: 80% to less than 90%) | 8 (8: 80% to less than 90%) | 8 (8: 80% to less than 90%) | 8 (8: 80% to less than 90%) |
| CC(C)=CCNc1c(C#N)cnn1-c1nn2c(c1Br)CCCC2 [Compound 48] | 8 (8: 80% to less than 90%) | 9 (9: 90% to less than 100%) | 8 (8: 80% to less than 90%) | 10 (10: 100%) | 7 (7: 70% to less than 80%) | 8 (8: 80% to less than 90%) |
| N#Cc1cnn(-c2nn3c(c2Cl)CCCC3)c1NCC(Cl)=CCl (mixture of isomers) [Compound 11] | 8 (8: 80% to less than 90%) | 9 (9: 90% to less than 100%) | 8 (8: 80% to less than 90%) | 9 (9: 90% to less than 100%) | 7 (7: 70% to less than 80%) | 8 (8: 80% to less than 90%) |
